For this test, the target named is T1, High affinity choline transporter 1 (Homo sapiens, UniProt Q9GZV3).
T1 sequence (Q9GZV3 whole entry): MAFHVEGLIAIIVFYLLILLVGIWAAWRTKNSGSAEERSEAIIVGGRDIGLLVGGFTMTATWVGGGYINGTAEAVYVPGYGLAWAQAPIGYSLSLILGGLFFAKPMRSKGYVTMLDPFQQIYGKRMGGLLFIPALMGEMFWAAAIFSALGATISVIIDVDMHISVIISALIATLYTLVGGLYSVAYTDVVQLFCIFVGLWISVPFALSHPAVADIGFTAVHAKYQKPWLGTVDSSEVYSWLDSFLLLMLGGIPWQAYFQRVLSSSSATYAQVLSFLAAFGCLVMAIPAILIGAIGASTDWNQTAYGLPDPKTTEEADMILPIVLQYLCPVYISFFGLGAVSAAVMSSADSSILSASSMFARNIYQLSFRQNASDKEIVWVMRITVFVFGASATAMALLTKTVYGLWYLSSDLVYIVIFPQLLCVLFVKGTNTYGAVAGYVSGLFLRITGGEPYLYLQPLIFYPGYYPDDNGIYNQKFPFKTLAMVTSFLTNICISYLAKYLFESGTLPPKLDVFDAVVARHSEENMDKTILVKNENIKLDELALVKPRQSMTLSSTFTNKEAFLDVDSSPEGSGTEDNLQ
The test is described as follows: human choline transporter potentiators, potency – cell-based, 10-point CRC, membrane potential dye, dose response (AID 602376).

This note sets out measurements from BindingDB's records for doi:10.7270/Q21N7ZQ4 (Johns Hopkins Ion Channel Center, 2012).

`COc1cc(C2c3ccc(N)cc3OC(=N)C2C#N)cc(OC)c1OC` (configuration not stated) [2,7-bis(azanyl)-4-(3,4,5-trimethoxyphenyl)-4H-chromene-3-carbonitrile]: the EC50 was 13.5 µM.

As for `CCOC(=O)c1ccc(-[n+]2c(-c3ccccc3)cc(-c3ccccc3)cc2-c2ccccc2)cc1` [MLS001242871], the EC50 was 14.1 µM.
